The source of these data is patent publication US10201587B2, “Methods of inhibiting and treating biofilms using glycopeptide antibiotics” (MELINTA THERAPEUTICS, INC., priority 2008, dated 2019).

SMILES strings stand for the structures. Converted amounts (≈) assume the structure as drawn. Read-outs that look alike come from different tables or passages of the source.

For data set [1] the following is noted: cited from earlier work; for estimated fCmax in plasma: human, in vivo, 200 mg.
Data set [2] relates to S. aureus ATCC 29213. Kind of data set: Membrane permeability, SYTO-9/propidium iodide fluorescence. The conditions noted are these: 30 min. In kind it is cell-based. The method, then: For membrane permeability assays, bacteria were prepared identically as described above for the membrane depolarization assay with the exception that SYTO-9 and propidium iodide (Invitrogen Corporation) were added at 5 μM and 30 μM, respectively. Experiments were repeated three times and produced similar results; results from one assay are presented.

Data set [3] relates to S. aureus ATCC 29213. In words: Short duration (2 h) time-kill in membrane assay buffer. In kind it is cell-based. Conditions: for killing over short time course: fCmax. The method, then:
Short duration (2 h) time-kill studies were performed in membrane assay buffer (see below) to characterize the killing of S. aureus ATCC 29213 under conditions used in the membrane depolarization and permeability assays. Exponential- and stationary-phase S. aureus ATCC 29213 cells were diluted to an OD600=0.005 (approx 10^6 CFU/mL) in membrane assay buffer (10 mM HEPES-C1, pH 7.5, 50 μg/mL CaCl2) with or without 5 mM glucose, respectively. Experiments were initiated by the addition of antimicrobial agents at the indicated concentrations and bacteria were enumerated by serial-dilution plating.

The test system of data set [4] is S. aureus ATCC 29213. In words: Membrane depolarization, DiSC3(5) fluorescence. The conditions noted are these: 30 min. In kind it is cell-based. The method, then:
Bacteria were grown overnight in CAMHB and sub-cultured the following day in CAMHB to exponential phase (OD600≈0.25). Exponential- and stationary-phase cells were washed in membrane assay buffer with or without 5 mM glucose, respectively, and resuspended at an OD600=0.25. DiSC3(5) was added to a final concentration of 1.5 μM and the solution was incubated in the dark at ambient temperature for 30 minutes to allow loading of the fluorescent dye into cell membranes. After the loading period, cells were diluted 50-fold (OD600=0.005) in depolarization buffer with or without glucose for exponential- or stationary-phase cells, respectively. Assays were initiated by the addition of antimicrobial agents over a range of concentrations and were monitored in real time by fluorescence spectroscopy (λex=612, λem=665) for a period of 30 minutes. […] Experiments were repeated three times and produced similar results; results from one assay are presented.

The test system of data set [5] is VRSA VRS5. Kind of data set: MBEC system in vitro biofilm (MIC and MBEC). In kind it is cell-based, S. aureus. Conditions: for MBEC: 24-hour biofilm, 24 hours of exposure; for MIC: Staphylococcus aureus, VRSA. The method, then: (§1) The commercially-available MBEC™ system (Innovotech; Edmonton, AB, Canada) was used following the manufacturer's protocol (17) to establish in vitro biofilms of S. aureus and to determine the minimal biofilm eradication concentration (MBEC) of oritavancin and comparator antimicrobial agents. The MBEC represents the concentration of antimicrobial agent required to sterilize the biofilm after 24 hours of exposure. The MBEC™ system also allows for the determination of the minimal inhibitory concentration (MIC) of the test agent against planktonic cells under the conditions of the biofilm assay.
(§2) 150 μL of bacterial inocula at 10^7 CFU/mL in tryptic soy broth was aliquoted into each well of an MBEC plate. Biofilms were established for 24 hours in a rotary incubator at 37° C. and 150 rpm. For experiments involving 72-hour biofilms, peg lids were transferred each day to 96-well plates containing 150 μL/well of fresh tryptic soy broth and incubated another 24 hours. Peg lids with established biofilms were washed once in sterile saline (200 μL/well) and then placed in plates containing antimicrobial agents diluted in CAMHB (200 μL/well). Antimicrobial agents were serially diluted in CAMHB in 96-well plates and peg lids were exposed for 24 hours or for the indicated times. Following antimicrobial challenge, peg lids were washed once in sterile saline then placed in recovery plates containing CAMHB (200 μL/well). The recovery plates were sonicated for 5 minutes in an ultrasonic sonicating bath (VWR Aquasonic model 550D) at the maximum setting then incubated for 24 hours and the MBECs recorded. MBECs were determined from at least three independent experiments; results represent the ranges of MBECs obtained. To enumerate the biofilm colony forming units (CFUs) on individual control pegs, pegs were broken off the lid using sterile forceps placed in 1 ml sterile saline, sonicated for 5 min and vortexed for 1 min at the highest setting. Bacteria were then enumerated by serial-dilution plating.
(§3) To prevent loss of oritavancin due to binding to vessel surfaces (3), the CLSI now recommends inclusion of 0.002% polysorbate-80 for oritavancin broth microdilution MIC determinations (9).

Data set [6] deals with MRSA ATCC 33591. In words: MBEC system in vitro biofilm (MIC and MBEC). Conditions: for MBEC: 24-hour biofilm, 24 hours of exposure; for MIC: Staphylococcus aureus. In kind it is cell-based, S. aureus. The method, then:
as §1, §2, §3

Data set [7] concerns MSSA ATCC 29213. In words: MBEC system in vitro biofilm (MIC and MBEC). The conditions noted are these: for MBEC: 24-hour biofilm, 24 hours of exposure; for MIC: Staphylococcus aureus. In kind it is cell-based, S. aureus. The method, then:
as §1, §2, §3

For data set [8], the system named is VRSA VRS5. Kind of data set: Time-kill in nutrient-depleted CAMHB. In kind it is cell-based, S. aureus. The conditions noted are these: stationary-phase, 24-hour incubation, fCmax. The method, then: (§4) Nutrient-depleted CAMHB from each respective strain was prepared by 3 rounds of inoculation of CAMHB with exponential-phase bacteria, incubation overnight at 37° C. with rotation (225 rpm) and centrifugation (8000×g for 30 minutes) to remove bacteria. After the final round of inoculation, growth and centrifugation, the pH of the nutrient-depleted CAMHB was adjusted to pH=7.0 and the spent medium was filter-sterilized using a […] membrane (Corning Incorporated, Corning, N.Y.).
(§5) Nutrient-depleted CAMHB containing diluted antimicrobial agents was inoculated with stationary-phase bacteria from overnight cultures of the S. aureus strains at approximately 10^7 colony-forming units (CFU)/mL. Other experiments compared the killing of stationary- and exponential-phase S. aureus ATCC 29213 when inoculated into nutrient-depleted CAMHB containing the test agents. For assays involving daptomycin, nutrient-depleted CAMHB was supplemented with 50 μg/ml CaCl2 (8). All time-kill studies were performed in 96-well deep-well plates at 37° C. with rotation (225 rpm) in a total volume of 750 μL. Bacteria were enumerated by serial-dilution plating. Bacteriostatic and bactericidal activity of the antimicrobial agents were defined as a reduction in viable cell counts of <3 or ≥3 log at 24 hours relative to the starting inoculum, respectively (33). Experiments were repeated at least three times and produced similar results; results from one experiment are presented.

Data set [9] has as its system MRSA ATCC 33591. Kind of data set: Time-kill in nutrient-depleted CAMHB. In kind it is cell-based, S. aureus. The conditions noted are these: stationary-phase, 24-hour incubation, fCmax. As for the experimental part:
as §4, §5

The subject of data set [10] is S. epidermidis ATCC 35984. In words: MBEC plate biofilm eradication, agents in combination. In kind it is cell-based. From the text: The following strains were used for in vitro biofilm studies: vancomycin (VAN)-susceptible Enterococcus faecalis ATCC 29212 (VSE), VAN-resistant E. faecalis ATCC 51299 (VanB VRE), E. faecium ATCC 51559 (VanA VRE), S. epidermidis ATCC 12228 and the slime-producing strain S. epidermidis ATCC 35984. Biofilms were established in MBEC™ Physiology & Genetics Assay plates (Innovotech; Edmonton, Canada).

Data set [11] concerns exponentially-growing S. aureus (MSSA, MRSA, VRSA). The conditions noted are these: actively dividing cells; cited from earlier work.
Data set [12] has as its system stationary-phase MRSA ATCC 43300. In words: Ultrastructure by transmission electron microscopy of thin sections. Conditions: 3 hours in nutrient-depleted CAMHB; 1 μg/mL oritavancin, 16 μg/mL vancomycin. In kind it is cell-based, S. aureus. As for the experimental part: Bacteria were fixed in 2.5% glutaraldehyde to cross-link proteins and help preserve morphological structure. Prior to embedding, the samples were treated with fresh 2.5% (vol/vol) glutaraldehyde in HEPES buffer (pH, 6.8) for 2 hours. The samples were then post-fixed in 2.0% (wt/vol) osmium tetroxide, followed by en bloc-staining with 2.0% (wt/vol) uranyl acetate, as a heavy-metal stain, to add contrast to the cells. The cells were then dehydrated through a series of ethanol washes then embedded in LR White resin. Once polymerized by curing, each culture sample was thin sectioned and stained by uranyl acetate and lead citrate so as to view the internal cellular constituents and the juxtaposition of cell envelope layers such as the plasma membrane and cell wall. Transmission electron microscopy was used to view the thin sections using a Philips CM10 under standard operating conditions at 100 kV.

Data set [13] relates to MSSA ATCC 29213. In words: Time-kill in nutrient-depleted CAMHB. In kind it is cell-based, S. aureus. The conditions noted are these: 24 hour time point, estimated fCmax. As for the experimental part: as §4, §5
Setting [14] is: oritavancin without polysorbate-80.
[15] abbreviates: planktonic cells shed from 24-hour peg biofilms, oritavancin without polysorbate-80, read-out: MIC.

For `CCCCCCCCCC(=O)N[C@@H](Cc1c[nH]c2ccccc12)C(=O)N[C@H](CC(N)=O)C(=O)N[C@@H](CC(=O)O)C(=O)N[C@@H]1C(=O)NCC(=O)N[C@@H](CCCN)C(=O)N[C@@H](CC(=O)O)C(=O)N[C@H](C)C(=O)N[C@@H](CC(=O)O)C(=O)NCC(=O)N[C@H](CO)C(=O)N[C@@H]([C@H](C)CC(=O)O)C(=O)N[C@@H](CC(=O)c2ccccc2N)C(=O)O[C@@H]1C` [Daptomycin, daptomycin], the “estimated fCmax in plasma” value in data set [1] is 4 µg/mL. The “membrane permeability (SYTO-9 fluorescence)” value is “loss of fluorescence” in data set [2] (exponential-phase cells) and “no effect” in data set [2] (stationary-phase cells). In addition, the “killing over short time course” value in data set [3] (exponential-phase cells) is given as “Rapid killing”. For the same compound, in data set [3] (stationary-phase cells, within the 2-hour time period, oritavancin at fCmax 800, daptomycin at fCmax), the “reduction in CFU” value is listed as 0.7 log. Further, the “dissipation of membrane potential (DiSC3(5) fluorescence)” value is listed as “small effect” in [4] (exponential-phase cells) and “did not effect changes” in [4] (stationary-phase cells).

With `CC(=O)NC[C@H]1CN(c2ccc(N3CCOCC3)c(F)c2)C(=O)O1` [Linezolid, linezolid], the MBEC in [5] (setting [14]), in [6] (setting [14]) and in [7] (setting [14]) was greater than 128 µg/mL throughout. Besides, the MIC was 4 to 8 µg/mL (≈ 11.9 to 23.7 µM) in data set [5] (setting [15]); 2 to 4 µg/mL (≈ 5.93 to 11.9 µM) in data set [6] (setting [15]); 8 to 16 µg/mL (≈ 23.7 to 47.4 µM) in [7] (72-hour biofilms, read-out: planktonic MIC); 8 µg/mL (≈ 23.7 µM) in [7] (setting [15]). For the same compound, the “effect on bacterial cell numbers” value in [8] and in [9] was “no effect” each time.

For the compound `COc1c(N2C[C@@H]3CCCN[C@@H]3C2)c(F)cc2c(=O)c(C(=O)O)cn(C3CC3)c12` [MOX, moxifloxacin], the MBEC in combination in data set [10] (combination of ORI and MOX required for sterilization) is 4 mg/L.

For the compound `CO[C@H]1/C=C/O[C@@]2(C)Oc3c(C)c(O)c4c(c3C2=O)C2=NC3(CCN(CC(C)C)CC3)NC2=C(NC(=O)/C(C)=C\C=C\[C@H](C)[C@H](O)[C@@H](C)[C@@H](O)[C@@H](C)[C@H](OC(C)=O)[C@@H]1C)C4=O` [RFB, rifabutin], the MBEC in combination in [10] (combination of ORI and RFB required for sterilization) was 0.125 mg/L.

In the case of `CO[C@H]1/C=C/O[C@@]2(C)Oc3c(C)c(O)c4c(O)c(c(/C=N/N5CCN(C)CC5)c(O)c4c3C2=O)NC(=O)/C(C)=C\C=C\[C@H](C)[C@H](O)[C@@H](C)[C@@H](O)[C@@H](C)[C@H](OC(C)=O)[C@@H]1C` [Rifampicin, rifampicin], the MBEC in data set [5] (setting [14]) was 4 µg/mL; in data set [6] (setting [14]) it was 0.25 to 4 µg/mL; in data set [7] (setting [14]), 4 µg/mL. Further, the MIC in [5] (setting [15]) was 0.03 to 0.06 µg/mL (≈ 0.0365 to 0.0729 µM); in data set [6] (setting [15]), less than 0.03 µg/mL; in [7] (setting [15]) it was less than 0.02 µg/mL. In addition, the “estimated fCmax in plasma” value in [1] was 2 µg/mL.

As for `CN[C@H](CC(C)C)C(=O)N[C@H]1C(=O)N[C@@H](CC(N)=O)C(=O)N[C@H]2C(=O)N[C@H]3C(=O)N[C@H](C(=O)N[C@H](C(=O)O)c4cc(O)cc(O)c4-c4cc3ccc4O)[C@H](O)c3ccc(c(Cl)c3)Oc3cc2cc(c3O[C@@H]2O[C@H](CO)[C@@H](O)[C@H](O)[C@H]2O[C@H]2C[C@](C)(N)[C@H](O)[C@H](C)O2)Oc2ccc(cc2Cl)[C@H]1O` [Vancomycin, vancomycin], the MBEC in data set [5] (setting [14]) is greater than 128 µg/mL; in data set [6] (setting [14]) it was no less than 128 µg/mL; in [7] (setting [14]) it was greater than 128 µg/mL. In addition, the MIC is greater than 128 µg/mL in data set [5] (24 h); 1 to 2 µg/mL (≈ 0.69 to 1.38 µM) in data set [6] (24 h); 1 µg/mL (≈ 0.69 µM) in [7] (24 h); 2 to 16 µg/mL (≈ 1.38 to 11 µM) in data set [7] (72 h, read-out: planktonic MIC). Besides, in [1] (humans, standard dose (oritavancin 200 mg)), the “estimated free trough concentration in plasma” value is 4 µg/mL. The “membrane permeability (SYTO-9 fluorescence)” value in data set [2] (exponential-phase cells) and in [2] (stationary-phase cells) was “no effect on fluorescence” throughout. For the same compound, the “killing over short time course” value in data set [3] (exponential-phase cells) and in data set [3] (stationary-phase cells) was “did not effect any change” throughout. In data set [11], the “time required to exert bactericidal activity” value was 24 h. In addition, the “dissipation of membrane potential (DiSC3(5) fluorescence)” value in data set [4] (exponential-phase cells) and in data set [4] (stationary-phase cells) was “no effect on membrane potential” each time. Further, the septal mid-line staining result in [12] is on record as “evident”. For the same compound, the “less killing activity against stationary-phase cells compared to exponential-phase cells” value in data set [13] was “approx 2.4 log”.
